From PMC8262356, “SLC26A6-selective inhibitor identified in a small-molecule screen blocks fluid absorption in small intestine” (JCI Insight, 2021) come the findings set out here.

This assay concerns the target T1, slc26a2 (Mus musculus, UniProt Q62273).
T1 construct: Full -length slc26a2 cDNAs; expressed in transfected cells; host or cells: 293 T/17 cells, transient transfection with pIRES-HIF vector (IRES-YFP, not fused)
T1 sequence (Q62273 1-739): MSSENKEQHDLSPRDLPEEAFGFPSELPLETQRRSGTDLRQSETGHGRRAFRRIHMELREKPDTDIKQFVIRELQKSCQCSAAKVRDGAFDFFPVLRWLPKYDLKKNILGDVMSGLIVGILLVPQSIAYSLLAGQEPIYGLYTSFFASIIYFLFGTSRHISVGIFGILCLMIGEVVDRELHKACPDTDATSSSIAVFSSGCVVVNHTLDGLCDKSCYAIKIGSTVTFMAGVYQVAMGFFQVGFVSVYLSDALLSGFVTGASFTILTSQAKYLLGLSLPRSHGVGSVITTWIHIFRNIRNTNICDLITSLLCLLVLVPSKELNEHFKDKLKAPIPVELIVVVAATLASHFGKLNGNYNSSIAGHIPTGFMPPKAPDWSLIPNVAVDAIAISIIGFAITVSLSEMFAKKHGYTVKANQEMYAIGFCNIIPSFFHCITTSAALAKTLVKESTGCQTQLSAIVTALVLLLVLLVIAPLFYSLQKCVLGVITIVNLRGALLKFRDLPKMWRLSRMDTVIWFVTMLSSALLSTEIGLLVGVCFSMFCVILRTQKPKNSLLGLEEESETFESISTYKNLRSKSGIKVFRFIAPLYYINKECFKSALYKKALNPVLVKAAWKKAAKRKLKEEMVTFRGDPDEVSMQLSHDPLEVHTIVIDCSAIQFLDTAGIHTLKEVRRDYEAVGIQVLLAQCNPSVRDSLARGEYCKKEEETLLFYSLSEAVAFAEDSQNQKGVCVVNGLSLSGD
Nature of the assay: Selectivity: Cl-/I- exchange in 293T/17 cells transfected with slc26a2 and YFP. The assay is classed as cell-based. Conditions: 25 μM, 10 min preincubation. The method, then:
YFP-based cellular assays of slc26a3, slc26a4, SLC26A9, and TMEM16A function were performed as described previously ([7]). Slc26a1 and slc26a2 assays were done in transfected HEK 293 cells (see Supplemental Methods for details). Niflumic acid was used as a positive control for SLC26A isoforms ([7]). For TMEM16A, the selective small-molecule inhibitor TMinh-23 was used as a positive control ([28]). The activities of ENaC, CFTR, and CaCC were determined using well-differentiated HBE cells as described previously ([13]). Cl^–/HCO3^– exchange was measured as described previously ([7], [10], [11]). Briefly, cell cytoplasm was labeled with the pH-sensitive fluorescent dye BCECF-AM (Invitrogen), and Cl^–/HCO3^– exchange was measured in response to addition of a gluconate-containing solution to drive exchange of cytoplasmic Cl^– for extracellular HCO3^–, producing cytoplasmic alkalinization.
Slc26a1 and slc26a2 cDNA constructs
The complementar y DNA sequences of slc26a1 and slc26a2 were generated using gB LOCK gene fragments (Int egrat ed DNA technology, Coralville, IA) in the plasmid vector pIRESpuro3 (Takara, San J ose, CA). […]
PBS. […] Background-corrected, area-integrat ed single cell fluorescence was calcul ated for determination of slc26a1 / slc26a2 activit y from the rate of fluorescence quenching. […]

Structures are written as SMILES.

Take `Cc1c(Br)c(C(F)(F)F)nn1CC(=O)N1CCc2nc3cc(-c4ccccc4)[nH]n3c(=O)c2C1` [PAT1inh-B01]: the “effect on slc26a2 activity” value is reported as “did not affect”.
